From the NIST ThermoML archive (doi:10.1016/j.tca.2018.10.027)
“And” between values parts separate entries of the source, which are not always exact repeats. Equal entries are not always repeated.

Conditions: Liquid, Calculated from knudsen effusion weight loss

[Ag+].[Br-] [silver bromide]
Conditions | vapor or sublimation pressure
829.9 K | 0.000109 kPa [middle of 4 runs]
849.9 K | 0.000184 kPa [middle of 4 runs]
869.9 K | 0.000316 kPa [middle of 4 runs]
889.9 K | 0.00057 kPa and 0.000464 kPa and 0.000529 kPa
890 K | 0.000602 kPa
909.9 K | 0.000855 kPa and 0.000958 kPa and 0.000842 kPa
910 K | 0.001143 kPa
929.9 K | 0.001712 kPa [middle of 4 runs]
